Reference: ChEMBL document CHEMBL4680196, “Structurally novel PI3Kδ/γ dual inhibitors characterized by a seven-membered spirocyclic spacer: The SARs investigation and PK evaluation” (Eur J Med Chem, 2020)

Key:
[1] = target: PI3-kinase p110-delta/p85-alpha (Homo sapiens, UniProt O00329)
[2] = test system: SU-DHL-6; experiment: Antiproliferative activity against human SU-DHL-6 cells assessed as reduction in cell viability measured after 72 hrs by MTT assay; type: functional
[3] = target: PI3-kinase p110-alpha/p85-alpha (Homo sapiens, UniProt P42336)
[4] = target: Phosphatidylinositol 3-kinase regulatory subunit beta/Phosphatidylinositol 4,5-bisphosphate 3-kinase catalytic subunit beta isoform (Homo sapiens, UniProt P42338)
[5] = target: Phosphatidylinositol 4,5-bisphosphate 3-kinase catalytic subunit gamma isoform (Homo sapiens, UniProt P48736)
[6] = organism: Homo sapiens
[7] = organism: Homo sapiens; remark: listed apart in the source
[8] = organism: Homo sapiens; remark: listed apart in the source
[9] = test system: SU-DHL-6; experiment: Inhibition of PI3K in human SU-DHL-6 cells assessed as reduction in AKT phosphorylation at Ser473 residues after 2 hrs by Western blot analysis; type: cell-based
[10] = test system: SU-DHL-6; experiment: Inhibition of PI3K in human SU-DHL-6 cells assessed as reduction in S6K1 phosphorylation at Thr389 residues after 2 hrs by Western blot analysis; type: cell-based
[11] = Elimination half life in Sprague-Dawley rat at 5 mg/kg, iv by UHPLC-LC/MS analysis; type: ADME, organism-based; conditions: in vivo, read-out: beta t1/2 (converted)
[12] = AUC (0 to t) in Sprague-Dawley rat at 5 mg/kg, iv by UHPLC-LC/MS analysis; type: ADME, organism-based; parameters: dose 5 mg/kg; conditions: in vivo
[13] = Volume of distribution at steady state in Sprague-Dawley rat at 5 mg/kg, iv or po by UHPLC-LC/MS analysis; type: ADME, organism-based; conditions: in vivo, read-out: Vdss
[14] = Clearance in Sprague-Dawley rat at 5 mg/kg, […] by UHPLC-LC/MS analysis; type: ADME, organism-based; conditions: in vivo
[15] = Oral bioavailability in Sprague-Dawley rat at 5 mg/kg by UHPLC-LC/MS analysis; type: ADME, organism-based; conditions: in vivo
[16] = Elimination half life in Sprague-Dawley rat at 5 mg/kg, po by UHPLC-LC/MS analysis; type: ADME, organism-based; conditions: in vivo, read-out: beta t1/2 (converted)
[17] = AUC (0 to t) in Sprague-Dawley rat at 5 mg/kg, po by UHPLC-LC/MS analysis; type: ADME, organism-based; parameters: dose 5 mg/kg; conditions: in vivo

Sequence of PI3-kinase p110-delta/p85-alpha (P27986 whole entry): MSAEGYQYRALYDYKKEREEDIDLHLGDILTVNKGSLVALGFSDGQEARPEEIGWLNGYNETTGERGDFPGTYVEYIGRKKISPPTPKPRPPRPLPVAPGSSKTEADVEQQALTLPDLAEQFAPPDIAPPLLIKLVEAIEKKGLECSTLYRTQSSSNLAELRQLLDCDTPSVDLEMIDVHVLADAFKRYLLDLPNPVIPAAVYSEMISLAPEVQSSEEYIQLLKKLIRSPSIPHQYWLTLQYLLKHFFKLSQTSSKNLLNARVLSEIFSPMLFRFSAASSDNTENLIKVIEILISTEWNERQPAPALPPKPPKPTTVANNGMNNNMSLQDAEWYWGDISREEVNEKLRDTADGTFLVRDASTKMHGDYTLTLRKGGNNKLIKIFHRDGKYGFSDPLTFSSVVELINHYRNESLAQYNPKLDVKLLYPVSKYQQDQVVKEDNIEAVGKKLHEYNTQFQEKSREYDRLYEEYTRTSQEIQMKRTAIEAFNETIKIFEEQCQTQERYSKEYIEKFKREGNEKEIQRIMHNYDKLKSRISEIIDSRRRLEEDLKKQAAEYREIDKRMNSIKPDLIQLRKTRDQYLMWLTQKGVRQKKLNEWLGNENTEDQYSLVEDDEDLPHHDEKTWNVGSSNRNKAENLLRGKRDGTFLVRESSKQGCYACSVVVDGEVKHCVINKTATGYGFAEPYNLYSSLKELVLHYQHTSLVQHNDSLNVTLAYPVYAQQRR
Sequence of PI3-kinase p110-delta/p85-alpha (O00329 whole entry): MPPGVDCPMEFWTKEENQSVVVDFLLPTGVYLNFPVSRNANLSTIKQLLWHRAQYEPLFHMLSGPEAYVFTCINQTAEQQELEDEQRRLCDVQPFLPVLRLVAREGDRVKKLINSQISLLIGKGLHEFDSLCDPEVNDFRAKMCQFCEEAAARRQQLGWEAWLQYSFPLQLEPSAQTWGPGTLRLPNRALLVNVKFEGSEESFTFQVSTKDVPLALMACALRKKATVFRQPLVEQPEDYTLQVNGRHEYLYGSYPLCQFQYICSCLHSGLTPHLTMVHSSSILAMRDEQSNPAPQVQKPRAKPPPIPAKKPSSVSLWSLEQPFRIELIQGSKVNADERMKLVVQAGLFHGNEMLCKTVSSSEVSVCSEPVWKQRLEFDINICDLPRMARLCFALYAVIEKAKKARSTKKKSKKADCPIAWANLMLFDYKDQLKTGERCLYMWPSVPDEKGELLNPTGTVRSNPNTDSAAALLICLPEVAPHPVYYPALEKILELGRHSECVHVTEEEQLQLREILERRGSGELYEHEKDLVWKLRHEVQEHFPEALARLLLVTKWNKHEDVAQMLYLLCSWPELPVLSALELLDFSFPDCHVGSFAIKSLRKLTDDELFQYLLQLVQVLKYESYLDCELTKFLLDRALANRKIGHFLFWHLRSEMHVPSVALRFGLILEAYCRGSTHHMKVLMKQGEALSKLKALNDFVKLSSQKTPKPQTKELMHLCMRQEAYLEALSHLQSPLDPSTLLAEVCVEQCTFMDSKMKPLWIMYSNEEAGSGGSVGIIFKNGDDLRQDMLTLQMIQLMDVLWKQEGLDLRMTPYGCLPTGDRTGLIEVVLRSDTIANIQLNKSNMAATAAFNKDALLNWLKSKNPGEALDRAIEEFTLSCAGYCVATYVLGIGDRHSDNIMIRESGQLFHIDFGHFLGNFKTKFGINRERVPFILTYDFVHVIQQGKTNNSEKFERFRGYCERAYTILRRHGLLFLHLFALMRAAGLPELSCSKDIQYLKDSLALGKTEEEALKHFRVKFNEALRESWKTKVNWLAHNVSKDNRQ
Sequence of PI3-kinase p110-alpha/p85-alpha (P27986 whole entry, canonical isoform): as the sequence (P27986 whole entry) above
Sequence of PI3-kinase p110-alpha/p85-alpha (P42336 whole entry, canonical isoform): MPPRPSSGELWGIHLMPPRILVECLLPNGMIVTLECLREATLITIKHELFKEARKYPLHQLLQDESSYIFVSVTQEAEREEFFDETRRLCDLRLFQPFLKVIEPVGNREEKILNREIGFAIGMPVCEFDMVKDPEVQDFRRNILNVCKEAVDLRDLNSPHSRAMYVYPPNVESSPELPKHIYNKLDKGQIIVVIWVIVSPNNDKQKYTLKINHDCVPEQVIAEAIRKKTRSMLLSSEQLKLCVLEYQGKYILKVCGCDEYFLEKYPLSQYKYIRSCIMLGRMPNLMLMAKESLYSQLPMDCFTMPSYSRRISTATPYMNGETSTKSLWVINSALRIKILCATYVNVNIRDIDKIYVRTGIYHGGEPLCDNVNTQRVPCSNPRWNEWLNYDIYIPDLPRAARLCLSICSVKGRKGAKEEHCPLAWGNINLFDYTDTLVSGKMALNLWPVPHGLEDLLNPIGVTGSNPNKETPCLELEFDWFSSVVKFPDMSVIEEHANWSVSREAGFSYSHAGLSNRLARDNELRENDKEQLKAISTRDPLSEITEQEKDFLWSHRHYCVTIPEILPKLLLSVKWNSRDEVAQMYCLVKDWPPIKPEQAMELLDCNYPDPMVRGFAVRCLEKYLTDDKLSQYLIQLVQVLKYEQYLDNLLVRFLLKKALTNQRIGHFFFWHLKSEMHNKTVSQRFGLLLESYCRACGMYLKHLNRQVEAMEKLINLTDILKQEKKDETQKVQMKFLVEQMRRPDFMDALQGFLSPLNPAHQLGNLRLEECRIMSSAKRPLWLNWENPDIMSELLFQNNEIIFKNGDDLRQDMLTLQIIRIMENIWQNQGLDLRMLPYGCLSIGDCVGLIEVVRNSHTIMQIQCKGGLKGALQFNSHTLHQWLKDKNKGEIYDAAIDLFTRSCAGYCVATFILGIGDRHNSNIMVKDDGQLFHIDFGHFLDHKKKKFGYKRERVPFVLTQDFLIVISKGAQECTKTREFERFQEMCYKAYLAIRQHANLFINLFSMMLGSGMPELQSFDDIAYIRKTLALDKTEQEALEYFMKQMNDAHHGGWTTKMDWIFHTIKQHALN
Sequence of Phosphatidylinositol 3-kinase regulatory subunit beta/Phosphatidylinositol 4,5-bisphosphate 3-kinase catalytic subunit beta isoform (P42338 whole entry, canonical isoform): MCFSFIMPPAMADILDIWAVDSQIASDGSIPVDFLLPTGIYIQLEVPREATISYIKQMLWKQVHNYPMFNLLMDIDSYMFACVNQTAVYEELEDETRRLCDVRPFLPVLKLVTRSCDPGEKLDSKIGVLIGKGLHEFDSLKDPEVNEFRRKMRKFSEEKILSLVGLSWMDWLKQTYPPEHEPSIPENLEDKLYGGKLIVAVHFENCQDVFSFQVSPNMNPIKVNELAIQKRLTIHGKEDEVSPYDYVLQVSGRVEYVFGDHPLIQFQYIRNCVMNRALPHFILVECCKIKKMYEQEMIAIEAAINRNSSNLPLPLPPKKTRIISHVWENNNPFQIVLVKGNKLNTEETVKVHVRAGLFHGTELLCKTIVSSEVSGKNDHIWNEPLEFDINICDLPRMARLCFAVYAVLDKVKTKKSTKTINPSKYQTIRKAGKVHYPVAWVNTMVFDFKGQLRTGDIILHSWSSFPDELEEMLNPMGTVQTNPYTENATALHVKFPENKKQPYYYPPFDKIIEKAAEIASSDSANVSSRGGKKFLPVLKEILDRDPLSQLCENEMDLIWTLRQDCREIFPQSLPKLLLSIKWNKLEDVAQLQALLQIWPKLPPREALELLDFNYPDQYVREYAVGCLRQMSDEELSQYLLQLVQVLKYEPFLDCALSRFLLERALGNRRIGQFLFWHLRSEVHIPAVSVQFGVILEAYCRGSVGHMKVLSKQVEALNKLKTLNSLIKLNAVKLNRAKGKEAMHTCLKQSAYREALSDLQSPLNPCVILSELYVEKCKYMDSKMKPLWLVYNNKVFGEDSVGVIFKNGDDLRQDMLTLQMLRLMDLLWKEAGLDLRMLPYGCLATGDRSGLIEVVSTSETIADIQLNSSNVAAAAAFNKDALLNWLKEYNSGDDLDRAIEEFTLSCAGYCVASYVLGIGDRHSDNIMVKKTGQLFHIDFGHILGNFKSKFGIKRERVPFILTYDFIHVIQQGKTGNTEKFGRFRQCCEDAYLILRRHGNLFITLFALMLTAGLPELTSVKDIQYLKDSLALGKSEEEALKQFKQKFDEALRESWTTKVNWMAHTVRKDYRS
Sequence of Phosphatidylinositol 3-kinase regulatory subunit beta/Phosphatidylinositol 4,5-bisphosphate 3-kinase catalytic subunit beta isoform (O00459 whole entry, further chain, canonical isoform): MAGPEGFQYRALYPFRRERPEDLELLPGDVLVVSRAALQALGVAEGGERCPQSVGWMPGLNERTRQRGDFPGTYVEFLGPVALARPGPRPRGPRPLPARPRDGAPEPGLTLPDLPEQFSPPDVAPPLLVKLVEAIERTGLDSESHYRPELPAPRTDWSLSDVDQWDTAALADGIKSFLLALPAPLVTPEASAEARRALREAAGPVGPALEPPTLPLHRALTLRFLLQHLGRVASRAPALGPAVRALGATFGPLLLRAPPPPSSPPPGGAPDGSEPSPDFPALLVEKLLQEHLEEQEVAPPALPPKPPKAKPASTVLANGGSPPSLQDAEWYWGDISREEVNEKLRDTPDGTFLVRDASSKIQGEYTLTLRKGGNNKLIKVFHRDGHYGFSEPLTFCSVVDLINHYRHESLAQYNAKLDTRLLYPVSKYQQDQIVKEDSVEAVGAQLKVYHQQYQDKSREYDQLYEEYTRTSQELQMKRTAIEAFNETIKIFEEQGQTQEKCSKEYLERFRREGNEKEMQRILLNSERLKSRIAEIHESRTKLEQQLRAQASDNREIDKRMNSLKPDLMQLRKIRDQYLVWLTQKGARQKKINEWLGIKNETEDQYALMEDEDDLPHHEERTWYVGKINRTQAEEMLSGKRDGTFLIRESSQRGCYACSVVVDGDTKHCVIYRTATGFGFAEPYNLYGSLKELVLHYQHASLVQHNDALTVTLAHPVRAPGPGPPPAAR

Compound	IC50 [1]	GI50 [2]	further results
O=c1c2c(F)cccc2nc([C@@H]2CC3(CC3)CN2c2ncnc3[nH]cnc23)n1C1CCCCC1	444 nM	–	–
Cc1nc(N)nc(N2CC3(CC3)C[C@H]2c2nc3cccc(F)c3c(=O)n2-c2ccccc2)c1C#N	9.4 nM	1040 nM	–
O=c1c2c(Cl)cccc2nc([C@@H]2CC3(CC3)CN2c2nc(F)nc3[nH]cnc23)n1-c1ccccc1	38 nM	2810 nM	–
O=c1c2cc(F)ccc2nc([C@@H]2CC3(CC3)CN2c2ncnc3[nH]cnc23)n1-c1ccccc1	48 nM	937 nM	–
Cc1cccc2nc([C@@H]3CC4(CC4)CN3c3ncnc4[nH]cnc34)n(-c3ccccc3)c(=O)c12	16 nM	107 nM	–
O=c1c2c(F)cccc2nc([C@@H]2CC3(CC3)CN2c2ncnc3[nH]cnc23)n1-c1ccccc1	43 nM	813 nM	–
N#Cc1c(N)nc(N)nc1N1CC2(CC2)C[C@H]1c1nc2cccc(Cl)c2c(=O)n1-c1ccccc1	1 nM	33 nM	IC50 [3]: 221 nM; IC50 [4]: 174 nM; IC50 [5]: 4.3 nM; Ratio IC50 [6]: 221; Ratio IC50 [7]: 174; Ratio IC50 [8]: 4; inhibition [9]: Dose-dependent effect; inhibition [10]: Dose-dependent effect; half-life [11]: 180 min; AUC(0-t) [12]: 5580 ng·h/mL; Vd [13]: 3.9 L/kg; CL/F [14]: 15 mL/min/kg; bioavailability [15]: 87.5%; half-life [16]: 858 min; AUC(0-t) [17]: 4880 ng·h/mL
O=c1c2c(Cl)cccc2nc([C@@H]2CC3(CC3)CN2c2ncnc3[nH]cnc23)n1-c1ccccc1	13 nM	601 nM	IC50 [3]: > 5000 nM; IC50 [4]: 2640 nM; IC50 [5]: 113 nM; Ratio IC50 [6]: > 385; Ratio IC50 [7]: 203; Ratio IC50 [8]: 9
N#Cc1c(N)nc(N)nc1N1CC2(CC2)C[C@H]1c1nc2cccc(F)c2c(=O)n1-c1ccccc1	5.4 nM	53 nM	–
CC[C@H](Nc1ncnc2[nH]cnc12)c1nc2cccc(F)c2c(=O)n1-c1ccccc1 [IDELALISIB]	–	34 nM	–
O=c1c2c(F)cccc2nc([C@@H]2CC3(CC3)CN2c2ncnc3[nH]cnc23)n1C1CCCC1	396 nM	–	–
Cc1nc(N)nc(N2CC3(CC3)C[C@H]2c2nc3cccc(Cl)c3c(=O)n2-c2ccccc2)c1C#N	9.6 nM	716 nM	–
O=c1c2c(F)cccc2nc([C@@H]2CC3(CC3)CN2c2ncnc3[nH]cnc23)n1Cc1ccccc1	813 nM	–	–
O=c1c2c(Cl)cccc2nc([C@@H]2CC3(CC3)CN2c2nc(Cl)nc3[nH]cnc23)n1-c1ccccc1	406 nM	–	–
N#Cc1c(N)ncnc1N1CC2(CC2)C[C@H]1c1nc2cccc(Cl)c2c(=O)n1-c1ccccc1	3.7 nM	3420 nM	–
N#Cc1c(N)ncnc1N1CC2(CC2)C[C@H]1c1nc2cccc(F)c2c(=O)n1-c1ccccc1	15 nM	867 nM	–
N#Cc1c(N)ncnc1N1CC2(CC2)C[C@H]1c1nc2ccc(F)cc2c(=O)n1-c1ccccc1	9.6 nM	945 nM	–
